Test results reported in publication PMC7182704 (Computational and Structural Biotechnology Journal, 2020).

Legend:
LinB [1] = molecular target: T1, LinB (Sphingobium indicum, UniProt D4Z2G1); settings: pH 8.6, 37 °C, cited from earlier work
T1 sequence (D4Z2G1 1-296): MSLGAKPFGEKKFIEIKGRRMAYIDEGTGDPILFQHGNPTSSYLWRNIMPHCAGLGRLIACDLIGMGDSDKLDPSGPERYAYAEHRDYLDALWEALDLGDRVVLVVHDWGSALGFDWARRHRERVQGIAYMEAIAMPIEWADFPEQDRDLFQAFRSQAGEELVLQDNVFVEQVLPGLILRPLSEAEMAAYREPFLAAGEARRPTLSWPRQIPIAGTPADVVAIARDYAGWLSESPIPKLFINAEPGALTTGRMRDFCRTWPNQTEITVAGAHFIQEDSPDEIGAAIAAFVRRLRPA

DhlA = settings: pH 8.2, 30 °C; cited from earlier work
DhaA = settings: pH 9.4, 30 °C; cited from earlier work
[2] = Stability of COU–Br and BDP–Cl in the dark and under irradiation; format: physicochemical; settings: 10 µM, pH 8.0, 30 °C
[3] = Photophysical properties of fluorescent substrates; format: physicochemical
LinB [4] = molecular target: T1, LinB; settings: 37 °C, pH 8.6; cited from earlier work
DmmA = molecular target: T2, DmmA (Lyngbya majuscula, UniProt Q6DND9); settings: 37 °C, pH 8.6; cited from earlier work
T2 sequence (Q6DND9 25-341): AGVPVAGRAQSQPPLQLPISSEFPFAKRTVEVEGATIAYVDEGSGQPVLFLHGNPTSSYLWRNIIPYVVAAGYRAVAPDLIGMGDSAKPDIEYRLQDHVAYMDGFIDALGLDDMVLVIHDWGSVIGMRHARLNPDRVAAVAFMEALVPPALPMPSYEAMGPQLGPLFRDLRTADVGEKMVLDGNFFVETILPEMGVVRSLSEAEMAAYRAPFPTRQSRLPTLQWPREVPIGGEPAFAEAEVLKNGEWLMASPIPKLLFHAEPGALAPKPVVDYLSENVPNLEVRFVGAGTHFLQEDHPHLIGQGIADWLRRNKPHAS

[5] = substrate: COc1cc2oc(=O)cc(CBr)c2cc1OC; assay: Steady-state kinetics, fluorescence progress curves fitted globally; format: biochemical, marine microbial consortium; settings: other: DmmA, 30 °C, pH 8.0
[6] = PBS buffer/DMSO (90:10, v/v), pH 8.0, c ≈ 10^−6 M

Question: Which results are given for `CCCCCCCl` [CH, 1-chlorohexane]?
Answer: k3 (LinB [1]; three-step model): 3.2 ± 0.2 s⁻¹; k2 (LinB [1]): 117 ± 5 s⁻¹

Question: For `ClCCCl` [DCE, 1,2-dichloroethane], which k1 (DhlA) is on record?
Answer: Its k1 is 9 ± 1 × 10^-3 μM^−1s^−1.

Question: What about the k2 (DhlA) of the same molecule?
Answer: The k2 was 50 ± 10 s⁻¹.

Question: What about the k3 (DhlA) of the same molecule?
Answer: Its k3 is 14 ± 3 s⁻¹.

Question: What about the k4 (DhlA) of the same molecule?
Answer: The k4 was 8 ± 2 s⁻¹.

Question: What about the “k−1” value (DhlA) of the same molecule?
Answer: Its value is 20 ± 5 s⁻¹.

Question: For `BrCCCBr` [DBP, 1,3-dibromopropane], which k1 (DhaA) is on record?
Answer: The k1 was 800000 to 2.5e+06 M⁻¹ s⁻¹.

Question: What about the k2 (DhaA) of the same molecule?
Answer: The k2 was 249 to 272 s⁻¹.

Question: What about the k3 (DhaA) of the same molecule?
Answer: The k3 was 13.5 to 16.3 s⁻¹.

Question: What about the k4 (DhaA) of the same molecule?
Answer: The k4 was 3.4 to 4.6 s⁻¹.

Question: And the “k−1” value (DhaA)?
Answer: Its value is 60 to 300 s⁻¹.

Question: With `COc1cc2oc(=O)cc(CBr)c2cc1OC` [COU–Br, 4-(bromomethyl)-6,7-dimethoxycoumarin] as the molecule, how does the stability under irradiation ([2]; PBS buffer/DMSO (90:10), xenon lamp 100 W, 10 min) read?
Answer: Its stability under irradiation is “slowly degraded under irradiation”.

Question: What about the “stability in the dark” value ([2]; PBS buffer/DMSO (90:10, v/v)) of the same molecule?
Answer: Its value is “stable in the dark”.

Question: And the “increase in quantum yield upon covalent binding to HLDs” value [3]?
Answer: Its value is 6 fold.

Question: And the “Φfl (quantum yield of fluorescence)” value [3, 6]?
Answer: Its value is 15.2 ± 1.2%.

Question: And the “λmax (absorption maximum)” value [3, 6]?
Answer: The value was 354 nm.

Question: And the “ε (molar absorption coefficient)” value ([3]; neat DMSO, three independent measurements)?
Answer: The value was 11,500 M^−1cm^−1.

Question: For `BrCCBr` [DBE, 1,2-dibromoethane], which Km (LinB [4]) is on record?
Answer: The Km was 1700 ± 200 µM.

Question: What about the kcat (LinB [4]) of the same molecule?
Answer: The kcat was 12 ± 4 s⁻¹.

Question: And the Km (DmmA)?
Answer: The Km was 2300 ± 300 µM.

Question: What about the kcat (DmmA) of the same molecule?
Answer: The kcat was 1.8 ± 0.4 s⁻¹.

Question: With `CCCCCl` [CB, 1-chlorobutane] as the molecule, how does the Km (LinB [4]) read?
Answer: The Km was 240 ± 20 µM.

Question: What about the kcat (LinB [4]) of the same molecule?
Answer: Its kcat is 1.00 ± 0.03 s⁻¹.

Question: What about the Km (DmmA) of the same molecule?
Answer: The Km was 400 ± 100 µM.

Question: And the kcat (DmmA)?
Answer: Its kcat is 0.17 ± 0.02 s⁻¹.

B1: DmmA (Lyngbya majuscula) (protein)
chain: AGVPVAGRAQSQPPLQLPISSEFPFAKRTVEVEGATIAYVDEGSGQPVLFLHGNPTSSYLWRNIIPYVVAAGYRAVAPDLIGMGDSAKPDIEYRLQDHVAYMDGFIDALGLDDMVLVIHDWGSVIGMRHARLNPDRVAAVAFMEALVPPALPMPSYEAMGPQLGPLFRDLRTADVGEKMVLDGNFFVETILPEMGVVRSLSEAEMAAYRAPFPTRQSRLPTLQWPREVPIGGEPAFAEAEVLKNGEWLMASPIPKLLFHAEPGALAPKPVVDYLSENVPNLEVRFVGAGTHFLQEDHPHLIGQGIADWLRRNKPHAS
Question: Which Km [5] does the source give for B1 here?
Answer: The Km was 0.9 ± 0.6 µM.

Question: What about the kcat [5] of the same molecule?
Answer: The kcat was 1.9 ± 0.1 s⁻¹.

Question: And the kcat/Km [5]?
Answer: The kcat/Km was 2.1e+06 M⁻¹ s⁻¹.
